The values that follow come from the OligoGym collection.

Several values for one entry are separate records, joined by “and”; a condition that tells them apart may be missing. Equal values may be shown once. HELM strings list units from the 5' end as sugar, base in round brackets, then linkage (d deoxyribose, r ribose, m 2'-O-methyl, p phosphodiester). Methylation of C is not given here. [moe] = 2'-O-(2-methoxyethyl) (MOE); [cEt] = constrained ethyl (cEt); [sp] = phosphorothioate linkage

In this series the target is HBV. The settings on record: ASO.

Consider “RNA1{[moe](T)[sp].[moe](T)[sp].[moe](C)[sp].d(C)[sp].d(G)[sp].d(C)[sp].d(A)[sp].d(G)[sp].d(T)[sp].d(A)[sp].d(T)[sp].d(G)[sp].d(G)[sp].[cEt](A)[sp].[cEt](T)[sp].[cEt](C)}$$$$V2.0”, for which the target mRNA inhibition (HepG2, 0.07 µM) was 60% and 68%. The same measure, in the same setting: for “RNA1{[moe](C)[sp].[moe](T)[sp].d(G)[sp].d(G)[sp].d(A)[sp].d(G)[sp].d(C)[sp].d(C)[sp].d(A)[sp].d(C)[sp].d(C)[sp].[moe](A)[sp].[moe](G)[sp].[moe](C)[sp].[moe](A)[sp].[moe](G)[sp].[moe](G)}$$$$V2.0” the value was 66% and 64%; for “RNA1{[moe](A)[sp].[cEt](A)[sp].[cEt](G)[sp].d(T)[sp].d(C)[sp].d(C)[sp].d(A)[sp].d(C)[sp].d(C)[sp].d(A)[sp].d(C)[sp].d(G)[sp].d(A)[sp].[cEt](G)[sp].[cEt](T)[sp].[moe](C)}$$$$V2.0”, 59% and 46%; for “RNA1{[moe](C)[sp].[moe](G)[sp].d(C)[sp].d(A)[sp].d(G)[sp].d(T)[sp].d(A)[sp].d(T)[sp].d(G)[sp].d(G)[sp].d(A)[sp].[moe](T)[sp].[moe](C)[sp].[moe](G)[sp].[moe](G)[sp].[moe](C)[sp].[moe](A)}$$$$V2.0”, 82% and 80%. The same measure, in the same setting: for “RNA1{[moe](T)[sp].[moe](T)[sp].d(A)[sp].d(T)[sp].d(G)[sp].d(C)[sp].d(C)[sp].d(T)[sp].d(A)[sp].d(C)[sp].d(A)[sp].[moe](G)[sp].[moe](C)[sp].[moe](C)[sp].[moe](T)[sp].[moe](C)[sp].[moe](C)}$$$$V2.0” the value was 56% and 57%; for “RNA1{[moe](G)[sp].[cEt](C)[sp].[cEt](A)[sp].d(C)[sp].d(A)[sp].d(G)[sp].d(C)[sp].d(T)[sp].d(T)[sp].d(G)[sp].d(G)[sp].d(A)[sp].d(G)[sp].[cEt](G)[sp].[cEt](C)[sp].[moe](T)}$$$$V2.0”, 27% and 12%. Still for that read-out and setting: for “RNA1{[moe](G)[sp].[cEt](C)[sp].[cEt](A)[sp].d(T)[sp].d(A)[sp].d(G)[sp].d(C)[sp].d(A)[sp].d(G)[sp].d(C)[sp].d(A)[sp].d(G)[sp].d(G)[sp].[cEt](A)[sp].[cEt](T)[sp].[moe](G)}$$$$V2.0” the value was 67% and 71%; for “RNA1{[moe](G)[sp].[moe](A)[sp].d(T)[sp].d(G)[sp].d(A)[sp].d(G)[sp].d(G)[sp].d(C)[sp].d(A)[sp].d(T)[sp].d(A)[sp].[moe](G)[sp].[moe](C)[sp].[moe](A)[sp].[moe](G)[sp].[moe](C)[sp].[moe](A)}$$$$V2.0”, 72% and 65%; for “RNA1{[moe](C)[sp].[moe](A)[sp].[moe](A)[sp].[moe](T)[sp].[moe](T)[sp].[moe](T)[sp].d(A)[sp].d(T)[sp].d(G)[sp].d(C)[sp].d(C)[sp].d(T)[sp].d(A)[sp].d(C)[sp].d(A)[sp].[moe](G)[sp].[moe](C)}$$$$V2.0”, 26% and 22%. With “RNA1{[moe](C)[sp].[moe](G)[sp].[moe](A)[sp].d(A)[sp].d(C)[sp].d(C)[sp].d(A)[sp].d(C)[sp].d(T)[sp].d(G)[sp].d(A)[sp].d(A)[sp].d(C)[sp].[cEt](A)[sp].[cEt](A)[sp].[cEt](A)}$$$$V2.0”, the target mRNA inhibition (HepG2, 0.07 µM) was 41% and 54%.

Turning to “RNA1{[moe](T)[sp].[moe](G)[sp].[moe](A)[sp].d(G)[sp].d(G)[sp].d(C)[sp].d(A)[sp].d(T)[sp].d(A)[sp].d(G)[sp].d(C)[sp].d(A)[sp].[moe](G)[sp].[moe](C)[sp].[moe](A)[sp].[moe](G)}$$$$V2.0”, the target mRNA inhibition (HepG2, 0.07 µM) is 60% and 49%. For the substance “RNA1{[moe](T)[sp].[moe](G)[sp].[moe](A)[sp].d(A)[sp].d(G)[sp].d(C)[sp].d(G)[sp].d(A)[sp].d(A)[sp].d(G)[sp].d(T)[sp].d(G)[sp].[moe](C)[sp].[moe](A)[sp].[moe](C)[sp].[moe](A)[sp].[moe](C)}$$$$V2.0”, the target mRNA inhibition (HepG2, 0.07 µM) was 74% and 60%. “RNA1{[moe](C)[sp].[moe](G)[sp].[moe](G)[sp].[moe](G)[sp].[moe](C)[sp].d(A)[sp].d(A)[sp].d(C)[sp].d(A)[sp].d(T)[sp].d(A)[sp].d(C)[sp].d(C)[sp].d(T)[sp].[moe](T)[sp].[moe](G)}$$$$V2.0”: under “HepG2, 0.07 µM”, the target mRNA inhibition was 54% and 53%. The same measure, in the same setting: in the case of “RNA1{[moe](A)[sp].[moe](A)[sp].[moe](T)[sp].[moe](T)[sp].[moe](T)[sp].d(A)[sp].d(T)[sp].d(G)[sp].d(C)[sp].d(C)[sp].d(T)[sp].d(A)[sp].d(C)[sp].d(A)[sp].[moe](G)[sp].[moe](C)}$$$$V2.0” it was 39% and 23%; in that of “RNA1{[moe](G)[sp].[moe](A)[sp].d(G)[sp].d(T)[sp].d(T)[sp].d(C)[sp].d(C)[sp].d(G)[sp].d(C)[sp].d(A)[sp].d(G)[sp].[moe](T)[sp].[moe](A)[sp].[moe](T)[sp].[moe](G)[sp].[moe](G)[sp].[moe](A)}$$$$V2.0”, 78% and 66%. For “RNA1{[moe](A)[sp].[moe](G)[sp].[moe](C)[sp].d(G)[sp].d(A)[sp].d(A)[sp].d(G)[sp].d(T)[sp].d(G)[sp].d(C)[sp].d(A)[sp].d(C)[sp].d(A)[sp].[cEt](C)[sp].[cEt](G)[sp].[cEt](G)}$$$$V2.0”, the target mRNA inhibition by setting is: (HepG2, 0.0092593 µM) 17%; (HepG2, 0.0277778 µM) 49%; (HepG2, 0.07 µM) 82% and 86%; (HepG2, 0.0833333 µM) 79%; (HepG2, 0.25 µM) 90%.

With “RNA1{[moe](T)[sp].[cEt](G)[sp].d(C)[sp].d(A)[sp].d(G)[sp].d(A)[sp].d(G)[sp].d(G)[sp].d(T)[sp].d(G)[sp].d(A)[sp].d(A)[sp].[cEt](G)[sp].[moe](C)[sp].[cEt](G)[sp].[moe](A)}$$$$V2.0”, the target mRNA inhibition runs as follows: (HepG2, 0.0092593 µM) 5%; (HepG2, 0.0277778 µM) 39%; (HepG2, 0.07 µM) 77% and 86%; (HepG2, 0.0833333 µM) 70%; (HepG2, 0.25 µM) 85%. Consider “RNA1{[moe](A)[sp].[moe](C)[sp].d(C)[sp].d(A)[sp].d(C)[sp].d(T)[sp].d(G)[sp].d(A)[sp].d(A)[sp].d(C)[sp].d(A)[sp].[moe](A)[sp].[moe](A)[sp].[moe](T)[sp].[moe](G)[sp].[moe](G)[sp].[moe](C)}$$$$V2.0”, for which the target mRNA inhibition (HepG2, 0.07 µM) is 58% and 68%. Same read-out and setting: in the case of “RNA1{[moe](T)[sp].[moe](G)[sp].d(C)[sp].d(A)[sp].d(G)[sp].d(A)[sp].d(G)[sp].d(G)[sp].d(T)[sp].d(G)[sp].d(A)[sp].[moe](A)[sp].[moe](G)[sp].[moe](C)[sp].[moe](G)[sp].[moe](A)}$$$$V2.0” it was 46% and 36%; in that of “RNA1{[moe](A)[sp].[moe](C)[sp].[moe](G)[sp].[moe](G)[sp].[moe](G)[sp].[moe](C)[sp].d(A)[sp].d(A)[sp].d(C)[sp].d(A)[sp].d(T)[sp].d(A)[sp].d(C)[sp].d(C)[sp].d(T)[sp].[moe](T)[sp].[moe](G)}$$$$V2.0”, 0%. The same measure, in the same setting: in the case of “RNA1{[moe](T)[sp].[moe](G)[sp].d(G)[sp].d(A)[sp].d(G)[sp].d(C)[sp].d(C)[sp].d(A)[sp].d(C)[sp].d(C)[sp].d(A)[sp].[moe](G)[sp].[moe](C)[sp].[moe](A)[sp].[moe](G)[sp].[moe](G)}$$$$V2.0” it was 29% and 41%; in that of “RNA1{[moe](G)[sp].[moe](G)[sp].[moe](T)[sp].[moe](G)[sp].[moe](A)[sp].[moe](A)[sp].d(G)[sp].d(C)[sp].d(G)[sp].d(A)[sp].d(A)[sp].d(G)[sp].d(T)[sp].d(G)[sp].d(C)[sp].[moe](A)[sp].[moe](C)}$$$$V2.0”, 85% and 67%; in that of “RNA1{[moe](G)[sp].[moe](A)[sp].[moe](G)[sp].[moe](G)[sp].d(T)[sp].d(G)[sp].d(A)[sp].d(A)[sp].d(G)[sp].d(C)[sp].d(G)[sp].d(A)[sp].d(A)[sp].[moe](G)[sp].[moe](T)[sp].[moe](G)[sp].[moe](C)}$$$$V2.0”, 63% and 54%.

Consider “RNA1{[moe](C)[sp].[moe](A)[sp].[moe](C)[sp].[moe](T)[sp].[moe](A)[sp].d(G)[sp].d(T)[sp].d(A)[sp].d(A)[sp].d(A)[sp].d(C)[sp].d(T)[sp].d(G)[sp].d(A)[sp].[moe](G)[sp].[moe](C)[sp].[moe](C)}$$$$V2.0”, for which the target mRNA inhibition (HepG2, 0.07 µM) was 71% and 62%. Turning to “RNA1{[moe](G)[sp].[moe](T)[sp].[moe](T)[sp].d(C)[sp].d(C)[sp].d(G)[sp].d(C)[sp].d(A)[sp].d(G)[sp].d(T)[sp].d(A)[sp].d(T)[sp].d(G)[sp].[cEt](G)[sp].[cEt](A)[sp].[cEt](T)}$$$$V2.0”, where the note is “HepG2, 0.07 µM”, the target mRNA inhibition is 52% and 67%. Still for that read-out and setting: in the case of “RNA1{[moe](G)[sp].[moe](A)[sp].[moe](A)[sp].d(C)[sp].d(T)[sp].d(G)[sp].d(G)[sp].d(A)[sp].d(G)[sp].d(C)[sp].d(C)[sp].d(A)[sp].[moe](C)[sp].[moe](C)[sp].[moe](A)[sp].[moe](G)[sp].[moe](C)}$$$$V2.0” it was 65% and 51%; in that of “RNA1{[moe](A)[sp].[moe](G)[sp].[moe](C)[sp].[moe](G)[sp].[moe](A)[sp].d(A)[sp].d(G)[sp].d(T)[sp].d(G)[sp].d(C)[sp].d(A)[sp].d(C)[sp].d(A)[sp].d(C)[sp].[moe](G)[sp].[moe](G)}$$$$V2.0”, 79% and 74%. “RNA1{[moe](C)[sp].[moe](G)[sp].[moe](C)[sp].d(A)[sp].d(G)[sp].d(T)[sp].d(A)[sp].d(T)[sp].d(G)[sp].d(G)[sp].d(A)[sp].d(T)[sp].d(C)[sp].[cEt](G)[sp].[cEt](G)[sp].[cEt](C)}$$$$V2.0”: the target mRNA inhibition is, setting by setting: (HepG2, 0.0092593 µM) 0%; (HepG2, 0.0277778 µM) 50%; (HepG2, 0.07 µM) 85% and 84%; (HepG2, 0.0833333 µM) 74%; (HepG2, 0.25 µM) 81%. Take “RNA1{[moe](G)[sp].[moe](G)[sp].[moe](A)[sp].d(G)[sp].d(T)[sp].d(T)[sp].d(C)[sp].d(C)[sp].d(G)[sp].d(C)[sp].d(A)[sp].d(G)[sp].d(T)[sp].[cEt](A)[sp].[cEt](T)[sp].[cEt](G)}$$$$V2.0”: the target mRNA inhibition (HepG2, 0.0092593 µM) amounted to 0%; the target mRNA inhibition (HepG2, 0.0277778 µM) amounted to 25%; the target mRNA inhibition (HepG2, 0.07 µM) is 74% and 82%; the target mRNA inhibition (HepG2, 0.0833333 µM) was 53%; the target mRNA inhibition (HepG2, 0.25 µM) was found to be 72%.
